The text below walks through data of ChEMBL document CHEMBL1135815, “Design, synthesis, and pharmacological evaluation of new farnesyl protein transferase inhibitors” (J Med Chem, 2002).

Each structure is given as a SMILES string. A value given as a limit tells only on which side of the number the result lay.

For test [1], the target named is Protein farnesyltransferase (Homo sapiens, UniProt P49354+P49356). Kind of test: Inhibition of Farnesyltransferase catalyzed transfer of the FPP moiety to dansyl-GCVLS. It counts as protein-complex assay.
The target of test [2] is Geranylgeranyl transferase type I (Homo sapiens, UniProt P49354+P53609). The test can be described thus: Inhibition of Geranylgeranyl transferase type I (GGPT I) catalyzed transfer of GGPP to dansyl-GCVLL. It counts as protein-complex assay.

A word on the IC50: it is the concentration at which inhibition is half-maximal. Low readings indicate greater potency, high ones weaker potency.

As to `COC(=O)[C@H](CCSC)N(C(=O)c1ccccc1)C1CCNCC1`, the IC50 in test [1] was over 100 µM. As to `CSCCC(NC(=O)[C@H](Cc1ccccc1)NCC[C@@H](C)CNC[C@H](N)CSC)C(=O)O` (stereo partly specified), the IC50 was 0.034 µM in test [1] and 5.1 µM in test [2]. As for `COC(=O)[C@H](CCSC)N(C(=O)c1ccccc1)C1CCN(C(=O)[C@H]2CSCN2)CC1`, in test [1], the IC50 was over 100 µM. With `COC(=O)[C@H](CCSC)N(C(=O)c1ccccc1)C1CCN(C(=O)[C@@H]2CSCN2)CC1`, the IC50 in test [1] was 2.14 µM; in test [2], over 100 µM.

On to `COC(=O)[C@H](CCSC)N(C(=O)c1ccccc1)C1CCN(C(=O)c2cscn2)CC1`, for which the IC50 in test [1] is 52.5 µM; in test [2] it was over 100 µM.

On to `COC(=O)[C@H](CCSC)N(C(=O)c1ccccc1)C1CCN(Cc2cscn2)CC1`, for which the IC50 was 41.7 µM in test [1] and over 100 µM in test [2]. Consider `COC(=O)[C@H](CCSC)N(C(=O)c1ccccc1)C1CCN(C(=O)C(N)CS)CC1` (stereo partly specified), for which the figures for the IC50 in test [1] and in test [2] were 0.02 µM and over 100 µM, respectively. The matching figures for `COC(=O)[C@H](CCSC)N(C(=O)c1ccccc1)C1CCN(Cc2c[nH]cn2)CC1`: 16.2 µM and over 100 µM. The matching figures for `CSCC[C@H](NC(=O)c1ccc(NC(=O)[C@@H](N)CS)cc1)C(=O)O`: 0.072 µM and over 100 µM.
